These compounds were tested against T1, c-Met kinase (recombinant c-Met) (Homo sapiens, UniProt P08581) (assay: In vitro kinase assay I (homogeneous time-resolved fluorescence tyrosine kinase assay)).
T1 construct: 0.27 nM recombinant c-Met
Format: biochemical
In short: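 Biotinylated peptide (0.5 μM) phosphorylated by 0.2 nM recombinant c-Met with 50 μM MgATP, 60 min at room temperature, pH 7.4, 5% DMSO. EDTA stop; HTRF read with Eu-anti-phosphotyrosine antibody and streptavidin-APC. IC50 from 4-parameter logistic fit.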

T1 sequence (P08581 25-1390): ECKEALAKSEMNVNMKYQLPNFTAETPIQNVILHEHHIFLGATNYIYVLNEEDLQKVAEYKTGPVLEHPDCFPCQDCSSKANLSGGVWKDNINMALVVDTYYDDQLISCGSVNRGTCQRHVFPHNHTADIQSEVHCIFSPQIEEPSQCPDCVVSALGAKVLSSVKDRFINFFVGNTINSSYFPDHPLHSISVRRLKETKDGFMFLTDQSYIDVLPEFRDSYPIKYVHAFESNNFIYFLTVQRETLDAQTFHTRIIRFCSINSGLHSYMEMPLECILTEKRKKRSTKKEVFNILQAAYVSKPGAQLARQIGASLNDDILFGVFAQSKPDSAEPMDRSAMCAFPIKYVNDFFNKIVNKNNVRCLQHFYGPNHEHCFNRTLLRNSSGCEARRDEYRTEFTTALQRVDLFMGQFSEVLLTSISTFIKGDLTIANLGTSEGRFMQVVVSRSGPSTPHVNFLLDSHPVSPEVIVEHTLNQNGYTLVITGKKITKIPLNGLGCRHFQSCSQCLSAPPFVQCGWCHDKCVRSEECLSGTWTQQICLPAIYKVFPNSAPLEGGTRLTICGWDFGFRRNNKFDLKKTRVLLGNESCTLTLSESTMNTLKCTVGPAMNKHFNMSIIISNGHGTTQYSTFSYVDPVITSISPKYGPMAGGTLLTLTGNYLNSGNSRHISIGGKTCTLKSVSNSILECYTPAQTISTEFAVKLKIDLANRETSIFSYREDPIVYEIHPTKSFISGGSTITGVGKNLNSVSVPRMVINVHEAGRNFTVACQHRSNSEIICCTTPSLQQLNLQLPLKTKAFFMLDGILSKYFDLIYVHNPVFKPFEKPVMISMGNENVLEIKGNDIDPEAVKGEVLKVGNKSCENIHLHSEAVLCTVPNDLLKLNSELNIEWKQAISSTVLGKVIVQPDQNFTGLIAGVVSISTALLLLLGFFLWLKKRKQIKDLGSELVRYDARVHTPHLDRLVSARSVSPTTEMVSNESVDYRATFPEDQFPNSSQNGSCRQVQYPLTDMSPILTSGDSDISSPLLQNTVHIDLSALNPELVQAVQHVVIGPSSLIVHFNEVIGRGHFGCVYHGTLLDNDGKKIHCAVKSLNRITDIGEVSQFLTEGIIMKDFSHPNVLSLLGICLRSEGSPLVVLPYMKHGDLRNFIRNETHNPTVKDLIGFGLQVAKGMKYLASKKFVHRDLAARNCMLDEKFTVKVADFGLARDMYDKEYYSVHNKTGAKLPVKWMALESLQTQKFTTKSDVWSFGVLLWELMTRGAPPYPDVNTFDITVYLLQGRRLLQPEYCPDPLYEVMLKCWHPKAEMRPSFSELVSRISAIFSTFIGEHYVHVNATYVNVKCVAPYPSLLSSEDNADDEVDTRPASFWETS

IC50, < 100 nM:
Cn1cc(-n2ccc(=O)c(Cc3cccc(NC(=O)OCCN4CCC(F)(F)C4)c3)n2)cn1 [Example 524, 2-(3,3-difluoropyrrolidin-1-yl)ethyl (3-{[1-(1-methyl-1H-pyrazol-4-yl)-4-oxo-1,4-dihydropyridazin-3-yl]methyl}phenyl)carbamate]
Cn1cc(-n2ccc(=O)c(Cc3cccc(NC(=O)OCC(F)(F)CN4CCOCC4)c3)n2)cn1 [Example 525, 2,2-difluoro-3-morpholin-4-ylpropyl (3-{[1-(1-methyl-1H-pyrazol-4-yl)-4-oxo-1,4-dihydropyridazin-3-yl]methyl}phenyl)carbamate]
Cn1cc(-n2ccc(=O)c(Cc3cccc(NC(=O)OCCC(C)(C)O)c3)n2)cn1 [Example 526, 3-hydroxy-3-methylbutyl (3-{[1-(1-methyl-1H-pyrazol-4-yl)-4-oxo-1,4-dihydropyridazin-3-yl]methyl}phenyl)carbamate]
O=C(Nc1cccc(Cc2nn(-c3ccc(F)c(F)c3)ccc2=O)c1)OCC1CCOCC1 [Example 527, tetrahydro-2H-pyran-4-ylmethyl (3-{[1-(3,4-difluorophenyl)-4-oxo-1,4-dihydropyridazin-3-yl]methyl}phenyl)carbamate]
O=C(Nc1cccc(Cc2nn(-c3ccc(F)c(F)c3)ccc2=O)c1)OCCN1CCS(=O)(=O)CC1 [Example 528, 2-(1,1-dioxidothio-morpholin-4-yl)ethyl-(3-{[1-(3,4-difluorophenyl)-4-oxo-1,4-dihydropyridazin-3-yl]methyl}phenyl)carbamate]
O=C1CN(CCOC(=O)Nc2cccc(Cc3nn(-c4ccc(F)c(F)c4)ccc3=O)c2)CCN1 [Example 529, 2-(3-oxopiperazin-1-yl)ethyl (3-{[1-(3,4-difluorophenyl)-4-oxo-1,4-dihydropyridazin-3-yl]methyl}phenyl)carbamate]
CN1CCN(CCOC(=O)Nc2cccc(Cc3nn(-c4cnn(C)c4)ccc3=O)c2)CC1 [Example 530, 2-(4-methylpiperazin-1-yl)ethyl (3-{[1-(1-methyl-1H-pyrazol-4-yl)-4-oxo-1,4-dihydropyridazin-3-yl]methyl}phenyl)carbamate]
Cn1cc(-n2ccc(=O)c(Cc3cccc(NC(=O)OCCN4CCOCC4)c3)n2)cn1 [Example 531]
Cn1cc(-n2ccc(=O)c(Cc3cccc(NC(=O)OCCN4CCCC4=O)c3)n2)cn1 [Example 533, 2-(2-oxopyrrolidin-1-yl)ethyl (3-{[1-(1-methyl-1H-pyrazol-4-yl)-4-oxo-1,4-dihydropyridazin-3-yl]methyl}phenyl)carbamate]
Cn1cc(-n2ccc(=O)c(Cc3cccc(NC(=O)OCCn4cncn4)c3)n2)cn1 [Example 534, 2-(1H-1,2,4-triazol-1-yl)ethyl (3-{[1-(1-methyl-1H-pyrazol-4-yl)-4-oxo-1,4-dihydropyridazin-3-yl]methyl}phenyl)carbamate]
Cn1cc(-n2ccc(=O)c(Cc3cccc(NC(=O)OCCN4CCOCC4=O)c3)n2)cn1 [Example 535, 2-(3-oxomorpholin-4-yl)ethyl (3-{[1-(1-methyl-1H-pyrazol-4-yl)-4-oxo-1,4-dihydropyridazin-3-yl]methyl}phenyl)carbamate]
CN1CCN(CCCOC(=O)Nc2cccc(Cc3nn(-c4cnn(C)c4)ccc3=O)c2)CC1 [Example 536, 3-(4-methylpiperazin-1-yl)propyl-(3-{[1-(1-methyl-1H-pyrazol-4-yl)-4-oxo-1,4-dihydropyridazin-3-yl]methyl}phenyl)carbamate]
Cn1cc(-n2ccc(=O)c(Cc3cccc(NC(=O)OCCCN4CCOCC4)c3)n2)cn1 [Example 537, 3-morpholin-4-ylpropyl (3-{[1-(1-methyl-1H-pyrazol-4-yl)-4-oxo-1,4-dihydropyridazin-3-yl]methyl}phenyl)carbamate]
Cn1cc(-n2ccc(=O)c(Cc3cccc(NC(=O)OCC4CCC4)c3)n2)cn1 [Example 538, cyclobutylmethyl (3-{[1-(1-methyl-1H-pyrazol-4-yl)-4-oxo-1,4-dihydropyridazin-3-yl]methyl}phenyl)carbamate]
Cn1cc(-n2ccc(=O)c(Cc3cccc(NC(=O)OCC4CCCC4)c3)n2)cn1 [Example 539, cyclopentylmethyl (3-{[1-(1-methyl-1H-pyrazol-4-yl)-4-oxo-1,4-dihydropyridazin-3-yl]methyl}phenyl)carbamate]
Cn1cc(-n2ccc(=O)c(Cc3cccc(NC(=O)OCC4CCCCC4)c3)n2)cn1 [Example 540, cyclohexylmethyl (3-{[1-(1-methyl-1H-pyrazol-4-yl)-4-oxo-1,4-dihydropyridazin-3-yl]methyl}phenyl)carbamate]
Cn1cc(-n2ccc(=O)c(Cc3cccc(NC(=O)OCC4CCOCC4)c3)n2)cn1 [Example 541, tetrahydro-2H-pyran-4-ylmethyl (3-{[1-(1-methyl-1H-pyrazol-4-yl)-4-oxo-1,4-dihydropyridazin-3-yl]methyl}phenyl)carbamate]
Cn1cc(-n2ccc(=O)c(Cc3cccc(NC(=O)OCC4(C)COC4)c3)n2)cn1 [Example 543, (3-methyloxetan-3-yl)methyl (3-{[1-(1-methyl-1H-pyrazol-4-yl)-4-oxo-1,4-dihydropyridazin-3-yl]methyl}phenyl)carbamate]
Cn1cc(-n2ccc(=O)c(Cc3cccc(NC(=O)OCC(F)(F)F)c3)n2)cn1 [Example 544, 2,2,2-trifluoroethyl (3-{[1-(1-methyl-1H-pyrazol-4-yl)-4-oxo-1,4-dihydropyridazin-3-yl]methyl}phenyl)carbamate]
CN(C)C(=O)CCOC(=O)Nc1cccc(Cc2nn(-c3cnn(C)c3)ccc2=O)c1 [Example 545, 3-(dimethylamino)-3-oxopropyl (3-{[1-(1-methyl-1H-pyrazol-4-yl)-4-oxo-1,4-dihydropyridazin-3-yl]methyl}phenyl)carbamate]
CN(C)CCOC(=O)Nc1cccc(Cc2nn(-c3cc(F)c(F)c(F)c3)ccc2=O)c1 [Example 546, 2-(dimethylamino)ethyl (3-{[4-oxo-1-(3,4,5-trifluorophenyl)-1,4-dihydropyridazin-3-yl]methyl}phenyl)carbamate]
O=C(Nc1cccc(Cc2nn(-c3cc(F)c(F)c(F)c3)ccc2=O)c1)OCCn1ccnc1 [Example 547, 2-(1H-imidazol-1-yl)ethyl (3-{[4-oxo-1-(3,4,5-trifluorophenyl)-1,4-dihydropyridazin-3-yl]methyl}phenyl)carbamate]
O=C(Nc1cccc(Cc2nn(-c3cc(F)c(F)c(F)c3)ccc2=O)c1)OCCCn1cccc1 [Example 548, 3-(1H-pyrrol-1-yl)propyl (3-{[4-oxo-1-(3,4,5-trifluorophenyl)-1,4-dihydropyridazin-3-yl]methyl}phenyl)carbamate]
O=C(Nc1cccc(Cc2nn(-c3cc(F)c(F)c(F)c3)ccc2=O)c1)OCCN1CCCC1=O [Example 549, 2-(2-oxopyrrolidin-1-yl)ethyl (3-{[4-oxo-1-(3,4,5-trifluorophenyl)-1,4-dihydropyridazin-3-yl]methyl}phenyl)carbamate]
CN(CCOC(=O)Nc1cccc(Cc2nn(-c3cc(F)c(F)c(F)c3)ccc2=O)c1)c1ccccc1 [Example 550, 2-[methyl(phenyl)amino]ethyl (3-{[4-oxo-1-(3,4,5-trifluorophenyl)-1,4-dihydropyridazin-3-yl]methyl}phenyl)carbamate]
O=C(Nc1cccc(Cc2nn(-c3cc(F)c(F)c(F)c3)ccc2=O)c1)OCCCN1CCCC1=O [Example 551, 3-(2-oxopyrrolidin-1-yl)propyl (3-{[4-oxo-1-(3,4,5-trifluorophenyl)-1,4-dihydropyridazin-3-yl]methyl}phenyl)carbamate]
O=C(Nc1cccc(Cc2nn(-c3cc(F)c(F)c(F)c3)ccc2=O)c1)OCCn1cncn1 [Example 552, 2-(1H-1,2,4-triazol-1-yl)ethyl (3-{[4-oxo-1-(3,4,5-trifluorophenyl)-1,4-dihydropyridazin-3-yl]methyl}phenyl)carbamate]
CC1CCN(CCCOC(=O)Nc2cccc(Cc3nn(-c4cc(F)c(F)c(F)c4)ccc3=O)c2)CC1 [Example 553, 3-(4-methylpiperidin-1-yl)propyl (3-{[4-oxo-1-(3,4,5-trifluorophenyl)-1,4-dihydropyridazin-3-yl]methyl}phenyl)carbamate]
O=C(Nc1cccc(Cc2nn(-c3cc(F)c(F)c(F)c3)ccc2=O)c1)OCCCN1CCCC1 [Example 554, 3-pyrrolidin-1-ylpropyl (3-{[4-oxo-1-(3,4,5-trifluorophenyl)-1,4-dihydropyridazin-3-yl]methyl}phenyl)carbamate]
O=C(Nc1cccc(Cc2nn(-c3cc(F)c(F)c(F)c3)ccc2=O)c1)OCC1CCC1 [Example 555, cyclobutylmethyl (3-{[4-oxo-1-(3,4,5-trifluorophenyl)-1,4-dihydropyridazin-3-yl]methyl}phenyl)carbamate]
O=C(Nc1cccc(Cc2nn(-c3cc(F)c(F)c(F)c3)ccc2=O)c1)OCC1CCCC1 [Example 556, cyclopentylmethyl (3-{[4-oxo-1-(3,4,5-trifluorophenyl)-1,4-dihydropyridazin-3-yl]methyl}phenyl)carbamate]
O=C(Nc1cccc(Cc2nn(-c3cc(F)c(F)c(F)c3)ccc2=O)c1)OCC1CCCCC1 [Example 557, cyclohexylmethyl (3-{[4-oxo-1-(3,4,5-trifluorophenyl)-1,4-dihydropyridazin-3-yl]methyl}phenyl)carbamate]
O=C(Nc1cccc(Cc2nn(-c3cc(F)c(F)c(F)c3)ccc2=O)c1)OCC1CCOCC1 [Example 558, tetrahydro-2H-pyran-4-ylmethyl (3-{[4-oxo-1-(3,4,5-trifluorophenyl)-1,4-dihydropyridazin-3-yl]methyl}phenyl)carbamate]

Source: patent US20120264735A1 (priority 2009, published 2012)
